# Measured values published in publication PMC9269301, “Phytochemical Analysis, Antioxidant, Antimicrobial, and Cytotoxic Activity of Different Extracts of Xanthoparmelia stenophylla Lichen from Stara Planina, Serbia” (Plants, 2022).
# Read-outs that look alike come from different tables or passages of the source.
# Assays:
# [1] = system: K. pneumoniae (isolate); test: Microdilution with resazurin, antibacterial; format: cell-based, Klebsiella pneumoniae
# Experimental: (§1) The tested methanol, acetone, and n-hexane extracts, as well as the component (usnic acid) of X. stenophylla, were dissolved in 10% dimethyl sulfoxide (DMSO) and then diluted into the nutrient liquid medium. DMSO was obtained from Acros Organics (Fair Lawn, NJ, USA). Resazurin was obtained from Alfa Aesar GmbH & Co. (KG, Karlsruhe, Germany).
# (§2) The antimicrobial activity of the extracts and components was tested against 19 microorganisms. The experiment involved 15 strains of bacteria (i.e., 6 standard strains: Staphylococcus aureus ATCC 6538, Bacillus subtilis ATCC 6633, Proteus mirabilis ATCC 12453, Pseudomonas aeruginosa ATCC 27853, Klebsiella pneumoniae ATCC 70063, and Escherichia coli ATCC 25922; 9 isolates: Staphylococcus aureus, Escherichia coli, Salmonella enterica, Salmonella Typhimurium, Proteus mirabilis, Klebsiella pneumoniae, Pseudomonas aeruginosa, Bacillus subtilis, and Bacillus cereus). In addition, four fungal strains (i.e., two standard strains: Candida albicans ATCC 10231 and Aspergillus niger ATCC 16888; two isolates: Saccharomyces cerevisiae and Candida albicans) were tested. All isolates were a generous gift from the Institute of Public Health, Kragujevac. The other microorganisms were provided from the collection held by the Microbiology Laboratory Faculty of Science, University of Kragujevac.
# (§3) The bacterial suspensions were prepared by the direct colony method. The turbidity of the initial suspension was adjusted using a densitometer (DEN-1, BioSan, Riga, Latvia). When adjusted to the turbidity of the 0.5 McFarland’s standard (Andrews, 2005) the bacteria suspension contained approximately 10^8 colony-forming units (CFU)/mL, and the suspension of yeast contained 10^6 CFU/mL; 1:100 dilutions of the initial suspension were additionally prepared in sterile 0.85% saline. The suspensions of fungal spores were prepared by gentle stripping of spores from slopes with growing mycelia. The resulting suspensions were 1:1000 diluted in sterile 0.85% saline.
# (§4) Antimicrobial activity was tested by determining the minimum inhibitory concentrations (MICs) and minimum microbicidal concentrations (MBCs) using the microdilution plate method with resazurin [56]. The 96-well plates were prepared by dispensing 100 μL of Mueller–Hinton broth for bacteria and Sabouard broth for fungi into each well. A 10 μL aliquot from the stock solution of the tested extract or component was added to the first row of the plate. Then, two-fold serial dilutions were performed using a multichannel pipette. The obtained concentration range was from 10 to 0.08 mg/mL. The method is described in detail in [76].
# (§5) Each test included growth control and sterility control.
# (§6) Minimum microbicidal concentrations were determined by plating 10 μL of samples from wells where no indicator color change or no mycelia growth was recorded on a nutrient agar medium. At the end of the incubation period, the lowest concentration with no growth (no colony) was defined as the minimum microbicidal concentration.
# [2] = system: K. pneumoniae ATCC 70063; test: Microdilution with resazurin, antibacterial; format: cell-based, Klebsiella pneumoniae
# Experimental: as §1, §2, §3, §4, §5, §6
# [3] = system: B. subtilis (isolate); test: Microdilution with resazurin, antibacterial; format: cell-based, Bacillus subtilis
# Experimental: as §1, §2, §3, §4, §5, §6
# [4] = system: B. subtilis ATCC 6633; test: Microdilution with resazurin, antibacterial; format: cell-based, Bacillus subtilis
# Experimental: as §1, §2, §3, §4, §5, §6
# [5] = system: S. aureus ATCC 6538 biofilm; test: Antibiofilm activity (biofilm formation, crystal violet); format: cell-based, Staphylococcus aureus; details: S. aureus ATCC 6538, 37 °C, 48 h
# Experimental: The ability of S. aureus ATCC 6538 and P. aeruginosa to form biofilms was assayed as described by O’Toole et al. with some modifications. Briefly, the tissue culture of 96-well microtiter plates (Sarstedt, Germany) were prepared by dispensing 100 µL of nutrient broth (i.e., Mueller–Hinton broth) into each well. Ten microliters of spore suspension (10^8 colony-forming units (CFU)/mL) was added into each row. […] Biofilms formed by adherent cells in 96-well microtiter plates were stained with crystal violet (0.1% w/v; Fluka AG, Buchs, Switzerland) and incubated at room temperature for 20 min. Excess stain was rinsed off by thorough washing with deionized water and then with […] of 96% ethanol. Optical densities (ODs) of stained adherent bacteria were determined with an enzyme-linked immunosorbent assay (ELISA) plate reader (RT-2100C, Rayto, Shenzhen, China) at a 630 nm wavelength. Only broth served as a control to check sterility and nonspecific binding of media. To compensate for background absorbance, OD readings from sterile medium, fixative, and dye were averaged and subtracted from all test values. All tests were performed in duplicate. The tissue culture of 96-well microtiter plates (Sarstedt, Nümbrecht, Germany) were prepared by dispensing 100 µL of nutrient broth (i.e., Mueller–Hinton broth) into each well. From the stock solution of the tested extracts or components (concentration: 20 mg/mL), 100 µL was added to the first row of the microtiter plate. Two-fold serial dilutions were then made using a multichannel pipette, following which 10 µL of fresh bacterial suspension was added to each well. The inoculated microtiter plates were incubated at 37 °C for 48 h. After incubation, the content of each well was gently removed by tapping the microtiter plates. […] Biofilms formed by adherent cells in 96-well microtiter plates were stained with crystal violet (0.1% w/v; Fluka AG, Switzerland) and incubated at room temperature for 20 min. Excess stain was rinsed off by thorough washing with deionized water and then with […] densities (ODs) of stained adherent bacteria were determined with an enzyme-linked immunosorbent assay (ELISA) plate reader at a 630 nm wavelength. […] Only broth or broth with extracts served as a control to check the sterility and nonspecific binding of media. To compensate for background absorbance, OD readings from sterile medium, extracts, fixative, and dye were averaged and subtracted from all test values. All tests were performed in duplicate.
# [6] = system: P. aeruginosa biofilm; test: Biofilm metabolic activity by resazurin; format: cell-based, Pseudomonas aeruginosa; details: Figure 3
# Experimental: Resazurin (7-hydroxy-3H-phenoxazin-3-one-10-oxide) is a viability dye used to assess the metabolic activity of biofilms. After incubation at 37 °C/48 h, a volume of 10 µL of resazurin indicator solution was added to each well. Plates were incubated in the dark for 3 h at 37 °C. The OD was measured at 590 nm using an enzyme-linked immunosorbent assay (ELISA) plate reader. In addition, the color change from purple to pink indicated the metabolic activity of the formed biofilm.
# [7] = system: MDA-MB 231 cells (breast cancer); test: MTT assay; format: cell-based, human; details: data not shown
compound,measurement,setting,value
"CN(C)[C@@H]1C(O)=C(C(N)=O)C(=O)[C@@]2(O)C(O)=C3C(=O)c4c(O)cccc4[C@@](C)(O)[C@H]3C[C@@H]12 [TC, tetracycline]",MBC,"[1]; Klebsiella pneumoniae, antibiotics, read-out: MBC",32 µg/mL
same,MIC,"[1]; Klebsiella pneumoniae, antibiotics, read-out: MIC",4 µg/mL
same,MBC,"[2]; Klebsiella pneumoniae, ATCC70063, antibiotics, read-out: MBC",64 µg/mL
same,MIC,"[2]; Klebsiella pneumoniae, ATCC70063, antibiotics, read-out: MIC",4 µg/mL
same,MBC,"[3]; Bacillus subtilis, antibiotics, read-out: MBC",0.25 µg/mL
same,MIC,"[3]; Bacillus subtilis, antibiotics, read-out: MIC",< 0.06 µg/mL
same,MBC,"[4]; Bacillus subtilis, ATCC6633, antibiotics, read-out: MBC",0.37 µg/mL
same,MIC,"[4]; Bacillus subtilis, ATCC6633, antibiotics, read-out: MIC",0.25 µg/mL
same,"BIC90 (biofilm inhibitory concentration, 90% reduction of biofilm coverage)",[5],>1000 µg/mL
same,IC50,"[5]; Staphylococcus aureus, ATCC6538, read-out: BIC50 (biofilm inhibitory concentration, 50% reduction of biofilm coverage)",249 µg/mL
usnic acid,MBC,[1]; extracts and usnic acid,<10000 µg/mL
same,MIC,[1]; extracts and usnic acid,<10000 µg/mL
same,MBC,[2]; extracts and usnic acid,<10000 µg/mL
same,MIC,[2]; extracts and usnic acid,<10000 µg/mL
same,MBC,[3]; extracts and usnic acid,<80 µg/mL
same,MIC,[3]; extracts and usnic acid,<80 µg/mL
same,MBC,[4]; extracts and usnic acid,<80 µg/mL
same,MIC,[4]; extracts and usnic acid,<80 µg/mL
same,"BIC50 (biofilm inhibitory concentration, 50% reduction of biofilm coverage)",[5],1750 µg/mL
same,"BIC90 (biofilm inhibitory concentration, 90% reduction of biofilm coverage)",[5],5000 µg/mL
same,Metabolic activity of biofilm compared to the growth control,[6],higher
same,"Overall inhibitory effect (MTT), in words",[7],of minor importance
